Experimental data from the supplement of paper PMC11451515.

Tested on: SEM cells
Test: cell viability relative to DMSO control; higher = less cytotoxic
Details: 48 h
Outline: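 Viability, reported as a per-plate percentage of DMSO wells with cell-free wells as background, came from CellTiter-Glo One luminescence. Reading took place after 48 h at 37°C. Before that, NOMO1 or SEM (500 cells/well) or P12-Ichikawa (1000 cells/well) leukemia cells, adapted for at least four passages in each medium, were seeded in 1536-well plates (5 μl) and pin-dosed with library compounds in DMSO, 47 μM to 0.79 nM over 11 threefold points.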

[1] = HPLM + 10% dialyzed FBS, 0.000781 µM
[2] = HPLM + 10% dialyzed FBS, 0.00234 µM
[3] = HPLM + 10% dialyzed FBS, 0.00702 µM
[4] = HPLM + 10% dialyzed FBS, 0.0211 µM
[5] = HPLM + 10% dialyzed FBS, 0.0632 µM
[6] = HPLM + 10% dialyzed FBS, 0.19 µM
[7] = HPLM + 10% dialyzed FBS, 0.569 µM
[8] = HPLM + 10% dialyzed FBS, 1.71 µM
[9] = HPLM + 10% dialyzed FBS, 5.12 µM
[10] = HPLM + 10% dialyzed FBS, 15.4 µM
[11] = HPLM + 10% dialyzed FBS, 46.1 µM
[12] = RPMI 5 mM glucose + 10% FBS, 0.000781 µM
[13] = RPMI 5 mM glucose + 10% FBS, 0.00234 µM
[14] = RPMI 5 mM glucose + 10% FBS, 0.00702 µM
[15] = RPMI 5 mM glucose + 10% FBS, 0.0211 µM
[16] = RPMI 5 mM glucose + 10% FBS, 0.0632 µM
[17] = RPMI 5 mM glucose + 10% FBS, 0.19 µM
[18] = RPMI 5 mM glucose + 10% FBS, 0.569 µM
[19] = RPMI 5 mM glucose + 10% FBS, 1.71 µM
[20] = RPMI 5 mM glucose + 10% FBS, 5.12 µM
[21] = RPMI 5 mM glucose + 10% FBS, 15.4 µM
[22] = RPMI 5 mM glucose + 10% FBS, 46.1 µM
[23] = RPMI 5 mM glucose + 10% dialyzed FBS, 0.000781 µM
[24] = RPMI 5 mM glucose + 10% dialyzed FBS, 0.00234 µM
[25] = RPMI 5 mM glucose + 10% dialyzed FBS, 0.00702 µM
[26] = RPMI 5 mM glucose + 10% dialyzed FBS, 0.0211 µM
[27] = RPMI 5 mM glucose + 10% dialyzed FBS, 0.0632 µM
[28] = RPMI 5 mM glucose + 10% dialyzed FBS, 0.19 µM
[29] = RPMI 5 mM glucose + 10% dialyzed FBS, 0.569 µM
[30] = RPMI 5 mM glucose + 10% dialyzed FBS, 1.71 µM
[31] = RPMI 5 mM glucose + 10% dialyzed FBS, 5.12 µM
[32] = RPMI 5 mM glucose + 10% dialyzed FBS, 15.4 µM
[33] = RPMI 5 mM glucose + 10% dialyzed FBS, 46.1 µM

SMILES | cell viability [1] [%] | cell viability [2] [%] | cell viability [3] [%] | cell viability [4] [%] | cell viability [5] [%] | cell viability [6] [%] | cell viability [7] [%] | cell viability [8] [%] | cell viability [9] [%] | cell viability [10] [%] | cell viability [11] [%] | cell viability [12] [%] | cell viability [13] [%] | cell viability [14] [%] | cell viability [15] [%] | cell viability [16] [%] | cell viability [17] [%] | cell viability [18] [%] | cell viability [19] [%] | cell viability [20] [%] | cell viability [21] [%] | cell viability [22] [%] | cell viability [23] [%] | cell viability [24] [%] | cell viability [25] [%] | cell viability [26] [%] | cell viability [27] [%] | cell viability [28] [%] | cell viability [29] [%] | cell viability [30] [%] | cell viability [31] [%] | cell viability [32] [%] | cell viability [33] [%]
N#CC1(c2cccc(C(=O)Nc3cc(Oc4ccc5nc(NC(=O)C6CC6)sc5n4)ccc3F)c2Cl)CC1 | 93.5 | 95.8 | 106 | 93.9 | 117 | 118 | 102 | 94.9 | 82.1 | 46.7 | 30.6 | 75.1 | 89 | 90.5 | 74.5 | 84.1 | 68.2 | 74.5 | 59.1 | 39.4 | 17.4 | 17.6 | 101 | 106 | 106 | 105 | 105 | 102 | 108 | 83.2 | 69.6 | 37.1 | 26.3
NC(=O)N1CCC(CC(=O)N2CCC([C@H]3c4ncc(Br)cc4CCc4cc(Cl)cc(Br)c43)CC2)CC1 | 106 | 99.3 | 114 | 124 | 111 | 118 | 72.5 | 57.1 | 48.6 | 45.7 | 34.8 | 114 | 122 | 120 | 129 | 111 | 122 | 82.4 | 66.3 | 46 | 44.4 | 24.1 | 98.1 | 109 | 110 | 101 | 97.2 | 114 | 95.9 | 84.4 | 56.1 | 58 | 17.8
Cc1cccc(-c2[nH]c(C(C)(C)C)nc2-c2ccc3nccnc3c2)n1 | 121 | 121 | 120 | 131 | 123 | 125 | 124 | 121 | 117 | 97.7 | 11.1 | 95.9 | 85.8 | 89.7 | 95.9 | 91.2 | 81.1 | 89 | 67.9 | 82 | 64.9 | 6.89 | – | – | – | – | – | – | – | – | – | – | –
CC(C)[C@H](O)C(=O)N[C@@H](C)C(=O)N[C@@H]1C(=O)N(C)CCc2ccccc21 | 118 | 122 | 127 | 111 | 132 | 82.7 | 119 | 110 | 74 | 110 | 107 | – | – | – | – | – | – | – | – | – | – | – | 120 | 135 | 116 | 103 | 119 | 94.6 | 97.5 | 109 | 38.1 | 106 | 95.7
CCCCCN(C)CCC(O)(P(=O)([O-])O)P(=O)(O)O | 57.1 | 71.9 | 72.8 | 85.3 | 71.8 | 91.8 | 88.3 | 21.9 | 82.8 | 104 | 75.2 | 74.5 | 88.1 | 84.1 | 90.4 | 75.5 | 100 | 98.3 | 16.9 | 77.5 | 107 | 73.3 | 70 | 85.4 | 69 | 95.7 | 71.5 | 87.9 | 83.2 | 17.4 | 86.4 | 102 | 78.4
CC1=CC/2=C(C=C1C)N(C[C@@H](O)[C@@H](O)[C@@H](O)CO)C/3=N/C(=O)NC(=O)C3=N2 | 117 | 122 | 126 | 118 | 113 | 117 | 129 | 116 | 115 | 127 | 105 | 85.8 | 98.8 | 86.8 | 98.6 | 93.3 | 97.8 | 92.3 | 77.9 | 77.5 | 90.3 | 85.5 | 110 | 127 | 107 | 106 | 110 | 107 | 118 | 113 | 117 | 129 | 102
Cc1noc(N[S+](=O)([O-])c2ccc(N)cc2)c1C | 80.2 | 93.5 | 104 | 88.1 | 93.2 | 102 | 83.1 | 96.3 | 99.8 | 90.1 | 102 | 87.6 | 97.5 | 89.7 | 88.5 | 96.2 | 110 | 96 | 114 | 98 | 100 | 92.3 | 99.2 | 91.5 | 96.3 | 89.5 | 120 | 103 | 111 | 104 | 103 | 108 | 99.1
OC1=C(Cl)C=C(N\C2=C(\C(=O)NC2=O)C3=C(C=CC=C3)[N+]([O-])=O)C=C1 | 78.4 | 92.9 | 105 | 96.9 | 93 | 102 | 98 | 115 | 86.9 | 56.3 | 6 | 103 | 109 | 106 | 123 | 109 | 120 | 104 | 104 | 93.6 | 60.8 | 25.2 | 94.7 | 99.1 | 98.2 | 99.4 | 113 | 98.9 | 116 | 110 | 88.2 | 62.8 | 27.2
NC(=O)c1nnn(Cc2cc(Cl)c(C(=O)c3ccc(Cl)cc3)c(Cl)c2)c1N | 112 | 116 | 125 | 107 | 127 | 128 | 135 | 116 | 111 | 124 | 89.4 | 115 | 133 | 117 | 114 | 112 | 127 | 120 | 110 | 107 | 106 | 67.6 | 88.6 | 113 | 89.8 | 90.5 | 116 | 95.1 | 99.7 | 101 | 107 | 97.6 | 48.6
COCCCC/C(=N\OCCN)c1ccc(C(F)(F)F)cc1 | 86.4 | 100 | 75.7 | 80.8 | 92 | 76.1 | 83.9 | 96.9 | 75.4 | 77 | 28.1 | 94.3 | 86.1 | 79.7 | 94.5 | 92.7 | 85.9 | 87.2 | 92 | 74.6 | 73.7 | 35.6 | 105 | 103 | 88.7 | 95.8 | 111 | 100 | 91.6 | 106 | 99.4 | 93.1 | 52.3
CCCC[S+](=N)([O-])CCC(N)C(=O)O (stereo unspecified) | 87.1 | 78.5 | 102 | 107 | 124 | 108 | 132 | 102 | 109 | 97.5 | 41.6 | 114 | 109 | 136 | 131 | 113 | 136 | 128 | 104 | 125 | 103 | 84.6 | 120 | 108 | 131 | 122 | 137 | 140 | 128 | 146 | 157 | 111 | 120
Nc1nccc(-c2ccc3noc(-c4ccc(Cl)cc4)c3c2)n1 | – | – | – | – | – | – | – | – | – | – | – | 98.5 | 103 | 99.3 | 102 | 93.9 | 116 | 112 | 104 | 89.1 | 88.9 | 92.7 | 118 | 119 | 119 | 119 | 104 | 115 | 126 | 119 | 108 | 114 | 108
CCn1c(C(=O)N(C2CC2)C2CC2)cc2c3c(ncn3C)c(Nc3cc(C)n(C)n3)nc21 | 75.8 | 100 | 113 | 99.9 | 107 | 101 | 99.9 | 106 | 94.3 | 78.8 | 55.3 | 71.3 | 114 | 119 | 121 | 119 | 123 | 110 | 106 | 93 | 91.3 | 26.7 | 75.7 | 109 | 117 | 107 | 104 | 100 | 102 | 112 | 82.8 | 66.8 | 34.1
CCN(CC)CCCC(C)Nc1ccnc2cc(Cl)ccc12 (stereo unspecified) | 108 | 113 | 116 | 121 | 122 | 128 | 116 | 117 | 134 | 127 | 102 | 102 | 117 | 119 | 104 | 109 | 111 | 100 | 129 | 118 | 106 | 94.4 | 105 | 98.6 | 103 | 103 | 99.9 | 115 | 109 | 129 | 104 | 87 | 92.4
CC(=O)OCC(=O)[C@@]1(O)CC[C@H]2[C@@H]3CCC/4=C/C(=O)/C=C\[C@]4(C)[C@H]3[C@@H](O)C[C@]12C | 117 | 106 | 104 | 112 | 103 | 78.8 | 69.3 | 52.7 | 48.2 | 88 | 90.5 | 121 | 124 | 130 | 124 | 122 | 99.3 | 110 | 81.4 | 60.4 | 128 | 121 | – | – | – | – | – | – | – | – | – | – | –
COc1ccc(/C=C/C(=O)Nc2ccccc2C(=O)O)cc1OC | – | – | – | – | – | – | – | – | – | – | – | 109 | 140 | 118 | 130 | 99.4 | 97.5 | 110 | 116 | 125 | 106 | 104 | 94.7 | 115 | 110 | 108 | 35.1 | 115 | 96.7 | 110 | 116 | 129 | 96.7
CC(C)[C@]12O[C@H]1[C@@H]3O[C@@]34[C@@]5(C)CC\C6=C(COC6=O)/[C@@H]5C[C@@H]7O[C@]47[C@@H]2O | 88.8 | 8.24 | 7.05 | 7.2 | 8.43 | 7.98 | 7.67 | 7.16 | 5.34 | 3.24 | 2.08 | 70.6 | 5.86 | 5.11 | 4.85 | 5.84 | 5.43 | 4.78 | 4.12 | 3.56 | 2.23 | 1.15 | 107 | 6.37 | 6.75 | 6.32 | 7.36 | 7.3 | 6.55 | 6.33 | 4.78 | 3.05 | 2.21
